Test results as given in patent publication US20210077500A1, “PIKFYVE INHIBITORS FOR CANCER THERAPY” (Al Therapeutics, Inc., priority 2019, published 2021).
Where two headings read alike, the source gives them in different places. One block for each compound: values may come before it.

What was measured:
MKN45 = assay: 5-day viability assay, single agent and combination (Chou-Talalay CI); conditions: Homo sapiens, MKN-45, 120 h
Method: (§1) For assessment of synergistic activity, cells of each cell line were seeded at optimal density for growth onto different 96-well plates and placed into a humidified incubator (37° C., 5% CO2) to adhere overnight. The following day, the cells on each plate were treated either with a single agent (a PIKfyve inhibitor, e.g., apilimod, or a RAS pathway inhibitor) or with a combination of the two agents. Cells were treated for 120 hours and then assayed for cell viability using CellTiter-Glo™ (Promega).
(§2) Using this method, a CI value is calculated based on the effects of each drug alone on cell viability (single agent treatment) and the effects of each drug combination, across all combinations of both agents tested. The single agent treatments consisted of 8 different concentrations of each single agent, obtained by serial dilution. The concentrations were chosen to provide a range above and below the IC50 value of the single agent (if achieved) in a given cell line.
(§3) D1 alone and D2 alone were estimated from Hill's equation:
(§4) Here, we utilized cells harboring MET pathway activation, particularly the EBC-1, MKN45 and Caki-1 cell lines. In addition to MET inhibitors, since MET activates the RAS pathway, we also assayed for synergistic activity with inhibitors of the RAS pathway in these cells.

EBC-1 = assay: as above; conditions: Homo sapiens, EBC-1, 120 h
Method: as §1, §2, §3, §4

RKO cells = assay: CellTiter-Glo cell viability, single agent and combination (Chou-Talalay CI); conditions: Homo sapiens; for IC50: 120 h, read-out: IC50 (single agent), RKO (colorectal, BRAF V600E), 120 h, average of two independent experiments
Method: as §1, §2
In each experiment for a given cell line, the combination treatments consisted of 8×8 or 64 different combination treatments.
Using this method, combinations with CI values>1 are considered antagonistic, CI values=1 are considered additive, and CI values<1 are considered synergistic.

GP5d = assay: as above; format: cell-based; conditions: Homo sapiens, 120 h, GP5d (colorectal, KRAS G12D), average of two independent experiments
Method: as §1, §2, §3

A549 = assay: as above; conditions: Homo sapiens, A549, 120 h, read-out: IC50 (single agent)
Method: (§5) For assessment of synergistic activity, cells of each cell line were seeded at optimal density for growth onto different 96-well plates and placed into a humidified incubator (37° C., 5% CO2) to adhere overnight. […] Cells were treated for 120 hours and then assayed for cell viability using CellTiter-Glo™ (Promega).
as §2

Caki-1 = assay: 5-day viability assay, single agent and combination (Chou-Talalay CI); conditions: Homo sapiens, CAKI-1, 120 h
Method: as §1, §2, §3, §4

HT-29 = assay: CellTiter-Glo cell viability, single agent and combination (Chou-Talalay CI); format: cell-based; conditions: Homo sapiens, HT-29, 120 h, HT-29 (colorectal, BRAF V600E), average of two independent experiments
Method: as §1, §2, §3

HCT-15 = assay: as above; format: cell-based; conditions: Homo sapiens, HCT-15, 120 h, HCT-15 (colorectal, KRAS G13D), average of two independent experiments
Method: as §1, §2, §3

LS411N = assay: as above; format: cell-based; conditions: 120 h, LS411N (colorectal, BRAF V600E), average of two independent experiments
Method: as §1, §2, §3

A375 = assay: as above; conditions: Homo sapiens, A-375, 120 h, read-out: IC50 (single agent)
Method: as §5, §2

NCI-H1792 = assay: as above; conditions: Homo sapiens, NCI-H1792, 120 h, read-out: IC50 (single agent)
Method: as §5, §2

SW1417 = assay: 5-day CellTiter-Glo viability sensitivity screen; format: cell-based; conditions: Homo sapiens, 120 h; SW1417 colorectal; 5-day viability assays; read-out: IC50 (sensitive/resistant cut-off)
HCT116 = assay: 5-day CellTiter-Glo viability sensitivity screen; format: cell-based; conditions: Homo sapiens, HCT-116, 120 h; HCT116 colorectal (KRAS p.G13D); 5-day viability assays; read-out: IC50 (sensitive/resistant cut-off)
DLD1 = assay: 5-day CellTiter-Glo viability sensitivity screen; format: cell-based; conditions: Homo sapiens, DLD-1, 120 h; DLD1 colorectal (KRAS p.G13D); 5-day viability assays; read-out: IC50 (sensitive/resistant cut-off)
NCI-H596 = assay: 5-day viability assay; format: cell-based; conditions: Homo sapiens, 120 h, NCI-H596 (NSCLC, MET Exon 14), two independent experiments
NCI-H820 = assay: 5-day viability assay; format: cell-based; conditions: 120 h, NCI-H820 (NSCLC, MET AMP), two independent experiments
SW480 = assay: 5-day CellTiter-Glo viability sensitivity screen; format: cell-based; conditions: Homo sapiens, 120 h; SW480 colorectal (KRAS p.G12V); 5-day viability assays; read-out: IC50 (sensitive/resistant cut-off)
COLO-205 = assay: 5-day CellTiter-Glo viability sensitivity screen; format: cell-based; conditions: Homo sapiens, 120 h; COLO-205 colorectal; 5-day viability assays; read-out: IC50 (sensitive/resistant cut-off)
Hs746T = assay: 5-day viability assay; format: cell-based; conditions: Homo sapiens, 120 h, Hs746T (gastric, AMP, Exon 14), two independent experiments
NCI-H2030 = assay: CellTiter-Glo cell viability, single agent and combination (Chou-Talalay CI); conditions: Homo sapiens, NCI-H2030, 120 h, read-out: IC50 (single agent)
Method: as §5, §2

SW1116 = assay: 5-day CellTiter-Glo viability sensitivity screen; format: cell-based; conditions: Homo sapiens, SW 1116, 120 h; SW1116 colorectal (KRAS p.G12A); 5-day viability assays; read-out: IC50 (sensitive/resistant cut-off)
NCI-H1993 = assay: 5-day viability assay; format: cell-based; conditions: Homo sapiens, 120 h, NCI-H1993 (NSCLC, MET AMP), two independent experiments
MDST8 = assay: 5-day CellTiter-Glo viability sensitivity screen; format: cell-based; conditions: 120 h; MDST8 colorectal; 5-day viability assays; read-out: IC50 (sensitive/resistant cut-off)
[1] = system: cell lines harboring MET pathway activation; assay: 5-day viability assay, share of sensitive cell lines; format: cell-based; conditions: 6/10 cell lines
BxPC3 = assay: CellTiter-Glo cell viability, single agent; format: cell-based; conditions: Homo sapiens, BXPC-3; BxPC3 (pancreatic, BRAF delV487-P492); 120 h; average of two independent experiments
Method: The cell lines used in this study were derived from lung cancers, colorectal cancers, pancreatic cancer and melanoma, as shown in Table 2 below.
as §5

SBC-5 = assay: 5-day viability assay; format: cell-based; conditions: Homo sapiens, 120 h, SBC-5 (SCLC, MET AMP), two independent experiments
SNU-5 = assay: 5-day viability assay; format: cell-based; conditions: Homo sapiens, 120 h, SNU-5 (gastric, MET AMP), two independent experiments
NCI-H2122 = assay: CellTiter-Glo cell viability, single agent and combination (Chou-Talalay CI); conditions: Homo sapiens, NCI-H2122, 120 h, read-out: IC50 (single agent)
Method: as §5, §2

NCI-H2023 = assay: 5-day viability assay; format: cell-based; conditions: 120 h, NCI-H2023 (NSCLC, Autocrine), two independent experiments
NCI-H1944 = assay: CellTiter-Glo cell viability, single agent and combination (Chou-Talalay CI); conditions: Homo sapiens, NCI-H1944, 120 h, read-out: IC50 (single agent)
Method: as §5, §2

SW620 = assay: 5-day CellTiter-Glo viability sensitivity screen; format: cell-based; conditions: Homo sapiens, SW-620, 120 h; SW620 colorectal (KRAS p.G12V); 5-day viability assays; read-out: IC50 (sensitive/resistant cut-off)
A427 = assay: CellTiter-Glo cell viability, single agent and combination (Chou-Talalay CI); conditions: Homo sapiens, A-427, 120 h, read-out: IC50 (single agent)
Method: as §5, §2

[2] = system: colorectal cancer cell lines; assay: Sensitivity screen, share of sensitive cell lines; format: cell-based; conditions: nine out of 14 cell lines; 5-day CellTiter-Glo viability
COLO-741 = assay: 5-day CellTiter-Glo viability sensitivity screen; format: cell-based; conditions: Homo sapiens, 120 h; COLO-741 colorectal; 5-day viability assays; read-out: IC50 (sensitive/resistant cut-off)
[3] = read-out: IC50 (single agent), MKN45, 120 h, average of two independent experiments
[4] = read-out: IC50 (single agent), EBC-1, 120 h, average of two independent experiments
[5] = read-out: Viability (normalized)

- IC50 (A549): 6380 nM
- IC50 (HT-29): 6510 nM
- IC50 (HCT-15): 7.05 µM
SMILES: CNC(=O)c1cc(Oc2ccc(NC(=O)Nc3ccc(Cl)c(C(F)(F)F)c3)c(F)c2)ccn1 [Regorafenib, regorafenib]
- IC50 (RKO cells): 4.92 µM
- IC50 (Caki-1; read-out: IC50 (single agent)): 5960 nM

- IC50 (MKN45; [3]): 3 nM
SMILES: C[C@@H](c1ccc2nccn2c1)n1nnc2ncc(-c3cnn(C)c3)nc21 [Savolitinib, savolitinib]
- IC50 (EBC-1; [4]): 1.5 nM

- IC50 (MKN45; [3]): 1110 nM
SMILES: Cn1cnc2c(F)c(Nc3ccc(Br)cc3Cl)c(C(=O)NOCCO)cc21 [Selumetinib, selumetinib]
- IC50 (RKO cells): 3.51 µM
- viability at 0.078 µM (RKO cells; [5]): 78%
- viability at 0.125 µM (RKO cells; [5]): 78%
- viability at 0.313 µM (RKO cells; [5]): 71%
- viability at 0.625 µM (RKO cells; [5]): 74%
- viability at 1.25 µM (RKO cells; [5]): 64%
- viability at 2.5 µM (RKO cells; [5]): 53%
- viability at 5 µM (RKO cells; [5]): 46%
- viability at 100 µM (RKO cells; [5]): 32%
- IC50 (EBC-1; [4]): 160 nM
- IC50 (LS411N; Homo sapiens, LS-411N): 46 nM

- IC50 (MKN45; [3]): 16 nM
SMILES: CN1CCC(COc2cnc(-c3cccc(Cn4nc(-c5cccc(C#N)c5)ccc4=O)c3)nc2)CC1 [Tepotinib, tepotinib]
- IC50 (EBC-1; [4]): 13 nM

- IC50 (A549): 17 nM
- IC50 (HT-29): 3 nM
- IC50 (A375): 2 nM
- IC50 (NCI-H1792): 33 nM
- IC50 (MKN45; [3]): 18 nM
SMILES: CC(=O)Nc1cccc(-n2c(=O)n(C3CC3)c(=O)c3c(Nc4ccc(I)cc4F)n(C)c(=O)c(C)c32)c1 [Trametinib, trametinib]
- IC50 (RKO cells): 0.032 µM
- IC50 (GP5d): > 5 µM
- IC50 (Caki-1; read-out: IC50 (single agent)): 47 nM
- IC50 (EBC-1; [4]): 10 nM
- IC50 (LS411N; Homo sapiens, LS-411N): 1 nM

- IC50 (HT-29): 2470 nM
- IC50 (HCT-15): > 10 µM
SMILES: CCCS(=O)(=O)Nc1ccc(F)c(C(=O)c2c[nH]c3ncc(-c4ccc(Cl)cc4)cc23)c1F [Vemurafenib, vemurafenib]
- IC50 (RKO cells): 7.12 µM
- IC50 (LS411N; Homo sapiens, LS-411N): 350 nM

- IC50 (SW1417): > 200 nM
- IC50 (HCT116): < 200 nM
- IC50 (A549): 49 nM
- IC50 (DLD1): < 200 nM
- IC50 (NCI-H596): 304 nM
- IC50 (NCI-H820): 103 nM
- IC50 (SW480): < 200 nM
- IC50 (COLO-205): < 200 nM
- IC50 (NCI-H2030): 228 nM
- IC50 (SW1116): < 200 nM
- IC50 (NCI-H1993): 877 nM
- IC50 (A375): 104 nM
- IC50 (BxPC3): > 400 nM
- IC50 (NCI-H1792): > 400 nM
- IC50 (MKN45; read-out: Average IC50, MKN45 (gastric, MET AMP), 5-day viability assay, two independent experiments): 191 nM
- IC50 (SNU-5): 862 nM
- IC50 (NCI-H2122): > 400 nM
- IC50 (NCI-H2023): 73 nM
- IC50 (NCI-H1944): 36 nM
- IC50 (SW620): < 200 nM
- colorectal cancer cell lines sensitive to apilimod (average IC50 less than 200 nM) [2]: 64%
- IC50 (COLO-741): > 200 nM
SMILES: Cc1cccc(/C=N/Nc2cc(N3CCOCC3)nc(OCCc3ccccn3)n2)c1 [apilimod]
- IC50 (RKO cells): > 0.2 µM
- viability at 0.023 µM (RKO cells; [5]): 98%
- viability at 0.035 µM (RKO cells; [5]): 93%
- viability at 0.053 µM (RKO cells; [5]): 96%
- viability at 0.079 µM (RKO cells; [5]): 93%
- viability at 0.119 µM (RKO cells; [5]): 97%
- viability at 0.178 µM (RKO cells; [5]): 70%
- viability at 0.267 µM (RKO cells; [5]): 53%
- viability at 0.4 µM (RKO cells; [5]): 44%
- IC50 (Hs746T): 108 nM
- IC50 (GP5d): 0.209 µM
- IC50 (MDST8): > 200 nM
- cell lines harboring MET pathway activation sensitive to apilimod (IC50 less than 200 nM) [1]: 60%
- IC50 (SBC-5): 108 nM
- IC50 (Caki-1; read-out: Average IC50): 373 nM
- IC50 (EBC-1; read-out: Average IC50, EBC-1 (NSCLC, MET AMP), 5-day viability assay, two independent experiments): 113 nM
- IC50 (LS411N): 89 nM
- IC50 (A427): 80 nM

Further lines, the compound ahead of its results:

SMILES: COCCOc1cnc2ccn([C@H](C)c3nnc4c(F)cc(-c5cnn(C)c5)cn34)c(=O)c2c1 [AMG 337]
- IC50 (MKN45; [3]): 7 nM
- IC50 (EBC-1; [4]): 4 nM

SMILES: Cc1cccc(/C=N/Nc2cc(N3CCOCC3)n3nc(-c4ccncc4)cc3n2)c1 [APY-0201]
- IC50 (MKN45; [3]): 269 nM
- IC50 (EBC-1; [4]): 171 nM

SMILES: CC(C)Nc1cc(-c2c[nH]c(C(=O)N[C@H](CO)c3cccc(Cl)c3)c2)c(Cl)cn1 [BVD-523]
- IC50 (RKO cells): 0.945 µM
- IC50 (MKN45; [3]): 433 nM
- IC50 (EBC-1; [4]): 866 nM

SMILES: Cn1cnc2c(F)c(Nc3ccc(Br)cc3F)c(C(=O)NOCCO)cc21 [Binimetinib, binimetinib]
- IC50 (GP5d): > 5 µM
- IC50 (MKN45; [3]): 533 nM
- IC50 (EBC-1; [4]): 75 nM

SMILES: COc1cc2nccc(Oc3ccc(NC(=O)C4(C(=O)Nc5ccc(F)cc5)CC4)cc3)c2cc1OC [Cabozantinib, cabozantinib]
- IC50 (MKN45; [3]): 67 nM
- IC50 (EBC-1; [4]): 28 nM

SMILES: CNC(=O)c1ccc(-c2cnc3ncc(Cc4ccc5ncccc5c4)n3n2)cc1F [Capmatinib, capmatinib]
- IC50 (MKN45; [3]): 1.5 nM
- IC50 (EBC-1; [4]): 0.7 nM

SMILES: O=C(c1ccc(F)c(F)c1Nc1ccc(I)cc1F)N1CC(O)([C@@H]2CCCCN2)C1 [Cobimetinib, cobimetinib]
- IC50 (A549): 403 nM
- IC50 (GP5d): > 5 µM
- IC50 (MKN45; [3]): 194 nM
- IC50 (Caki-1; read-out: IC50 (single agent)): > 5000 nM
- IC50 (EBC-1; [4]): 136 nM

SMILES: C[C@@H](Oc1cc(-c2cnn(C3CCNCC3)c2)cnc1N)c1c(Cl)ccc(F)c1Cl [Crizotinib, crizotinib]
- IC50 (MKN45; [3]): 13 nM
- IC50 (EBC-1; [4]): 10 nM

SMILES: Cn1nccc1Nc1nccc(-c2ccn([C@H](CO)c3ccc(Cl)c(F)c3)c(=O)c2)n1 [GDC-0994]
- IC50 (MKN45; [3]): 5330 nM
- IC50 (EBC-1; [4]): 4150 nM
